Test results taken from patent US20230141887A1, “CRYSTAL FORM OF DIAZASPIROPYRAN COMPOUND” (MEDSHINE DISCOVERY INC., priority 2020, published 2023).

Columns and labels:
[1] = In vivo pharmacokinetic assay in rats; parameters: species or system SD male rats
Description: SD male rats aged 7 to 10 weeks were selected. The rats were fasted for at least 12 hours before the administration, and resumed feeding 4 hours after the administration. The rats had free access to water throughout the assay period.
(§1) On the day of the assay, the animals in the intravenous group were administrated the corresponding compound through a single injection in the tail vein at an administration volume of 5 mL/kg; the oral group were administrated the corresponding compound through a single intragastric gavage at an administration volume of 10 mL/kg. The animals were weighed before administration, and the administration volume was calculated based on the body weight. The time for collecting samples was: 0.083 (the injection group), 0.25, 0.5, 1, 2, 4, 6, 8, 24 h. About 200 μL of whole blood was collected from the jugular vein at each time point to prepare plasma for concentration determination by high-performance liquid chromatography-tandem mass spectrometry (LC-MS/MS). All animals were euthanized by CO2 anesthesia after collecting the PK samples at the last time point. The plasma concentrations were processed by non-compartmental model of WinNonlin™ Version 6.3 (Pharsight, Mountain View, Calif.) pharmacokinetic software, and the pharmacokinetic parameters were calculated by the linear logarithm trapezoidal method.

[2] = In vivo pharmacokinetic assay in dogs; parameters: species or system Male Beagle dogs; conditions: 1 mg/kg
Description: Male Beagle dogs older than 6 months of age were selected. On the day of the assay, the animals were given the corresponding compound by single injection in the cephalic or saphenous vein in a volume of 1 mL/kg for the intravenous group; and by single gavage in a volume of 5 mL/kg for the oral group. The animals were weighed before administration and the dosing volume of the compound was calculated based on their body weight. About 0.5 mL of whole blood was collected from the cephalic or saphenous vein at each time point to prepare plasma for determination of concentrations by high performance liquid chromatography-tandem mass spectrometry (LC-MS/MS). Plasma concentrations were processed using non-compartment model of WinNonlin™ Version 6.3 or above (Pharsight, Mountain View, Calif.) pharmacokinetic software, and pharmacokinetic parameters were calculated using the linear log trapezoidal method.

[3] = In vivo pharmacokinetic assay in mice; parameters: species or system CD-1 male mice
Description: CD-1 male mice aged 7 to 10 weeks were selected. The doses for intravenous and oral administration were 1 mg/kg and 2.5 mg/kg, respectively. The mice were fasted for at least 12 hours before the administration, and resumed feeding 4 hours after the administration. The mice had free access to water throughout the assay period.
as §1, with “4,” for “4, 6,”, “30” for “200”, “saphenous” for “jugular”

AXL = target: T1, AXL (Homo sapiens, UniProt P30530); assay: Assay of AXL inhibitory activity in vitro (Promega AXL Kinase Enzyme System, ADP-Glo); assay type: biochemical; conditions: 50 μmol/L ATP, 30° C., 60 minutes
T1 construct: purchased Promega
T1 sequence (P30530 26-894): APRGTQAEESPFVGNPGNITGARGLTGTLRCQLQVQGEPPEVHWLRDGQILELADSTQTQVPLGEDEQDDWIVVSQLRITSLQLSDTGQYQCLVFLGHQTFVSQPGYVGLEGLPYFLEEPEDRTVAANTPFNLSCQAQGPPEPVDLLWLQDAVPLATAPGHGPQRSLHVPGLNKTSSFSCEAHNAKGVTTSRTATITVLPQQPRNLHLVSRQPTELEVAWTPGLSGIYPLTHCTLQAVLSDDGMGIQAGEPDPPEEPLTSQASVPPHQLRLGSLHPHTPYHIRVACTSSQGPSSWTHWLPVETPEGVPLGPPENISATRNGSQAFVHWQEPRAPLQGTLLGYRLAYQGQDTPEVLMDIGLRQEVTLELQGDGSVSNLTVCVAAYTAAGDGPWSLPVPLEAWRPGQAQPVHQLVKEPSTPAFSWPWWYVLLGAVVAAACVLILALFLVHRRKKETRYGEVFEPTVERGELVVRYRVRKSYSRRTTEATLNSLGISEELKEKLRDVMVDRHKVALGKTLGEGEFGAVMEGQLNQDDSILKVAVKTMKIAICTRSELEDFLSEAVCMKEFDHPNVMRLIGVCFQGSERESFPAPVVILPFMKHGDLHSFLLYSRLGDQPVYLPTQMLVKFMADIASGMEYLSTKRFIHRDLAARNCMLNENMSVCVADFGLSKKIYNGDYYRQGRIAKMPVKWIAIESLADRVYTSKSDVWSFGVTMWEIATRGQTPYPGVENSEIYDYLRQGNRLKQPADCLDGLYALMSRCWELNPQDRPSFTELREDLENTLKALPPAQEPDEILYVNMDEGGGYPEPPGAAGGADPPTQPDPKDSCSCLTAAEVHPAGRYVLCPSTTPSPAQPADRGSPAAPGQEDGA
Description: AXL Kinase Enzyme System (kinase system) was purchased from Promega. Envision multi-label Analyzer (PerkinElmer).
The enzyme, substrate, ATP and inhibitors were diluted using the buffer solution in the kit.
The assay was carried out in duplicate. 1 μl of the inhibitors of each concentration gradient, 2 μl of the AXL enzyme (6 ng), and a 2 μl mixture of the substrate and ATP (50 μmol/L ATP, 0.2 μg/μL Axltide) were added to the microplate. […] After the reaction was completed, 5 μL of ADP-Glo reagent was added to each well. The system was further reacted at 30° C. for 40 minutes. After the reaction was completed, 10 μL of kinase detection reagent was added to each well and reacted at 30° C. for 30 minutes. The chemiluminescence was then read by the PerkinElmer Envision multi-label analyzer with an integration time of 0.5 seconds.
The original data was converted into an inhibition rate, and the IC50 value can be obtained by four-parameter curve fitting.

[4] = Oral administration (2.5 mg/kg)

**Q.** What does the source list for `CCc1nc(C(N)=O)c(Nc2ccc(N3CCC4(CCN(C)CC4)CC3)c(C)c2)nc1NC1CCOCC1.O=C(O)C(F)(F)F`?
**A.** AUC0-last ([1]; Injection, 1 mg/kg): 457 nm·h; Cl ([1]; Injection, 1 mg/kg): 3.67 L/h/kg; T1/2 ([1]; Injection, 1 mg/kg): 2.99 h; Vdss ([1]; Injection, 1 mg/kg): 13.3 L/kg; Cmax ([1]; Oral, 2.5 mg/kg): 0.0406 µM; F% ([1]; Oral, 2.5 mg/kg): 44.7%; Tmax ([1]; Oral, 2.5 mg/kg): 8.00 h; AUC0-last ([2]; Injection): 765 nm·h; Cl ([2]; Injection): 2.05 L/h/kg; T1/2 ([2]; Injection): 9.83 h; Vdss ([2]; Injection): 28.9 L/kg; Cmax ([2]; Oral): 0.0211 µM; F% ([2]; Oral): 41.6%; Tmax ([2]; Oral): 4.00 h; AUC0-last ([3]; Injection (1 mg/kg)): 604 nm·h; Cl ([3]; Injection (1 mg/kg)): 2.91 L/h/kg; T1/2 ([3]; Injection (1 mg/kg)): 2.40 h; Vdss ([3]; Injection (1 mg/kg)): 8.63 L/kg; Cmax [3, 4]: 0.0605 µM; F% [3, 4]: 37.3%; T1/2 [3, 4]: 4.41 h; Tmax [3, 4]: 4.00 h; IC50 (AXL): 1.22 nM
